Test results: ChEMBL document CHEMBL1127246, “1,2,5,6-tetrahydropyridine oxime ethers incorporating electron withdrawing groups are potent and selective muscarinic agonists” (Bioorg Med Chem Lett, 1994)
Each block holds one compound with its values, some of them ahead of it.

Tests used:
[1] = molecular target: Muscarinic acetylcholine receptor (Rattus norvegicus) (UniProt P08482+P08483+P08485+P08911+P10980); assay: Selectivity is the ratio of inhibitory activities against muscarinic receptors, determined using radioligand [3H]OXO-M and 3[H}-QND; assay type: protein assay
[2] = molecular target: Muscarinic acetylcholine receptor; assay: In vitro binding affinity against Muscarinic receptor in rat cerebral cortex using [3H]- quinuclidinyl benzilate (QNB)using as a radioligand; assay type: tissue-based
[3] = molecular target: Muscarinic acetylcholine receptor; assay: In vitro binding affinity against Muscarinic receptor in rat cerebral cortex using [3H]- oxotremorine-M (OXO-M) using as a radioligand; Value ranges from 240-290; assay type: tissue-based
[4] = Ratio of compound in rat rhythmical slow wave activity assay vs efficacy causing 50% decrease in BP in rats; assay type: functional
[5] = molecular target: Muscarinic acetylcholine receptor; assay: In vitro binding affinity against Muscarinic receptor in rat cerebral cortex using [3H]- oxotremorine-M (OXO-M) using as a radioligand; assay type: tissue-based
[6] = Partition coefficient (logP); assay type: physicochemical; conditions: octanol/water
[7] = pKa value was measured; assay type: physicochemical
Rattus norvegicus [8] = assay: Effective dose causing 50% decrease in mean blood pressure upon intravenous administration in rats; assay type: functional
Rattus norvegicus [9] = assay: Dose required to induce a standard increase in rhythmical slow wave activity (RSA) in rats when administered intravenously; assay type: functional
[10] = molecular target: Muscarinic acetylcholine receptor; assay: In vitro binding affinity against Muscarinic receptor in rat cerebral cortex using [3H]- oxotremorine-M (OXO-M) using as a radioligand; Value ranges from 46-110; assay type: tissue-based
[11] = molecular target: Muscarinic acetylcholine receptor; assay: In vitro binding affinity against Muscarinic receptor in rat cerebral cortex using [3H]- quinuclidinyl benzilate (QNB)using as a radioligand; Value ranges from 18000-23000; assay type: tissue-based
[12] = molecular target: Muscarinic acetylcholine receptor; assay: In vitro binding affinity against Muscarinic receptor in rat cerebral cortex using [3H]- oxotremorine-M (OXO-M) using as a radioligand; Value ranges from 28-58; assay type: tissue-based
[13] = molecular target: Muscarinic acetylcholine receptor; assay: In vitro binding affinity against Muscarinic receptor in rat cerebral cortex using [3H]- quinuclidinyl benzilate (QNB)using as a radioligand; Value ranges from 1500-7200; assay type: tissue-based
[14] = molecular target: Muscarinic acetylcholine receptor; assay: In vitro binding affinity against Muscarinic receptor in rat cerebral cortex using [3H]- quinuclidinyl benzilate (QNB)using as a radioligand; Value ranges from 4700-6700; assay type: tissue-based
[15] = molecular target: Muscarinic acetylcholine receptor; assay: In vitro binding affinity against Muscarinic receptor in rat cerebral cortex using [3H]- oxotremorine-M (OXO-M) using as a radioligand; Value ranges from 120-180; assay type: tissue-based
[16] = molecular target: Muscarinic acetylcholine receptor; assay: In vitro binding affinity against Muscarinic receptor in rat cerebral cortex using [3H]- oxotremorine-M (OXO-M) using as a radioligand; Value ranges from 65-260; assay type: tissue-based
[17] = molecular target: Muscarinic acetylcholine receptor; assay: In vitro binding affinity against Muscarinic receptor in rat cerebral cortex using [3H]- quinuclidinyl benzilate (QNB)using as a radioligand; Value ranges from 9700-23000; assay type: tissue-based
[18] = molecular target: Muscarinic acetylcholine receptor; assay: In vitro binding affinity against Muscarinic receptor in rat cerebral cortex using [3H]- oxotremorine-M (OXO-M) using as a radioligand; Value ranges from 120-220; assay type: tissue-based
[19] = molecular target: Muscarinic acetylcholine receptor; assay: In vitro binding affinity against Muscarinic receptor in rat cerebral cortex using [3H]- quinuclidinyl benzilate (QNB)using as a radioligand; Value ranges from 4300-9500; assay type: tissue-based
[20] = molecular target: Muscarinic acetylcholine receptor; assay: In vitro binding affinity against Muscarinic receptor in rat cerebral cortex using [3H]- quinuclidinyl benzilate (QNB)using as a radioligand; Value ranges from 2100-2300; assay type: tissue-based
[21] = molecular target: Muscarinic acetylcholine receptor; assay: In vitro binding affinity against Muscarinic receptor in rat cerebral cortex using [3H]- quinuclidinyl benzilate (QNB)using as a radioligand; Value ranges from 9100-9600; assay type: tissue-based
[22] = molecular target: Muscarinic acetylcholine receptor; assay: In vitro binding affinity against Muscarinic receptor in rat cerebral cortex using [3H]- oxotremorine-M (OXO-M) using as a radioligand; Value ranges from 840-1200; assay type: tissue-based
[23] = molecular target: Muscarinic acetylcholine receptor; assay: In vitro binding affinity against Muscarinic receptor in rat cerebral cortex using [3H]- oxotremorine-M (OXO-M) using as a radioligand; Value ranges from 330-620; assay type: tissue-based
[24] = molecular target: Muscarinic acetylcholine receptor; assay: In vitro binding affinity against Muscarinic receptor in rat cerebral cortex using [3H]- quinuclidinyl benzilate (QNB)using as a radioligand; Value ranges from 8000-8500; assay type: tissue-based
[25] = molecular target: Muscarinic acetylcholine receptor; assay: In vitro binding affinity against Muscarinic receptor in rat cerebral cortex using [3H]- oxotremorine-M (OXO-M) using as a radioligand; Value ranges from 23-35; assay type: tissue-based
[26] = molecular target: Muscarinic acetylcholine receptor; assay: In vitro binding affinity against Muscarinic receptor in rat cerebral cortex using [3H]- quinuclidinyl benzilate (QNB)using as a radioligand; Value ranges from 1200-1800; assay type: tissue-based
[27] = molecular target: Muscarinic acetylcholine receptor; assay: In vitro binding affinity against Muscarinic receptor in rat cerebral cortex using [3H]- quinuclidinyl benzilate (QNB)using as a radioligand; Value ranges from 11000-17000; assay type: tissue-based
[28] = molecular target: Muscarinic acetylcholine receptor; assay: In vitro binding affinity against Muscarinic receptor in rat cerebral cortex using [3H]- oxotremorine-M (OXO-M) using as a radioligand; Value ranges from 2300-3500; assay type: tissue-based
[29] = molecular target: Muscarinic acetylcholine receptor; assay: In vitro binding affinity against Muscarinic receptor in rat cerebral cortex using [3H]- oxotremorine-M (OXO-M) using as a radioligand; Value ranges from 990-1300; assay type: tissue-based
[30] = molecular target: Muscarinic acetylcholine receptor; assay: In vitro binding affinity against Muscarinic receptor in rat cerebral cortex using [3H]- quinuclidinyl benzilate (QNB)using as a radioligand; Value ranges from 15000-15000; assay type: tissue-based

Compound: CO/N=C(\C#N)C1CN2CCC1CC2 (stereo not given)
- Ratio [4]: >10.8
- Ratio [1]: 14

Compound: CO/N=C(\CF)C1=CCCNC1
- Ratio [1]: 40
- IC50 [2]: 17 µM
- IC50 [5]: 0.42 µM

Compound: CO/N=C(\C#N)C1=CCCN(C)C1
- Ratio [4]: >6.3
- logP [6]: 1.76
- pKa [7]: 7.65
- ED50 (Rattus norvegicus [8]): > 1 mg/kg
- IC50 [18]: 0.15 µM
- ED Arec (Rattus norvegicus [9]): 0.16 mg/kg
- Ratio [1]: 30
- IC50 [19]: 4.5 µM

Compound: CO/N=C(\F)C1CN2CCC1CC2 (stereo not given)
- IC50 [20]: 2.2 µM
- Ratio [1]: 65

Compound: CO/N=C(\C1=CCCN(C)C1)C(F)(F)F
- IC50 [5]: 11 µM

Compound: CO/N=C(\CF)C1=CCCN(C)C1
- IC50 [23]: 0.45 µM
- Ratio [1]: 18
- IC50 [24]: 8.3 µM

Compound: CO/N=C(\Cl)C1CN2CCC1CC2 (stereo not given)
- Ratio [1]: 16

Further lines, with some results ahead:

- Ratio [1]: 11
- IC50 [2]: 2.8 µM
- IC50 [3]: 0.26 µM
Compound: CO/N=C(\Cl)C1=CCCN(C)C1

- logP [6]: 1.01
- pKa [7]: 9.18
- Ratio [1]: 280
- IC50 [10]: 0.071 µM
- IC50 [11]: 20 µM
Compound: CO/N=C/C1=CCCNC1
- Ratio [4]: 3.5
- ED50 (Rattus norvegicus [8]): 0.067 mg/kg
- ED Arec (Rattus norvegicus [9]): 0.019 mg/kg

- logP [6]: 1.48
- IC50 [12]: 0.039 µM
- pKa [7]: 7.39
- Ratio [1]: 100
- IC50 [13]: 4 µM
Compound: CO/N=C(\F)C1=CCCN(C)C1
- Ratio [4]: 0.74
- ED50 (Rattus norvegicus [8]): 0.04 mg/kg
- ED Arec (Rattus norvegicus [9]): 0.054 mg/kg

- IC50 [14]: 5.6 µM
- IC50 [15]: 0.15 µM
- Ratio [1]: 37
Compound: CO/N=C(\Cl)C1=CCCNC1

- logP [6]: 1.45
- IC50 [16]: 0.11 µM
- pKa [7]: 8.21
- Ratio [1]: 130
- IC50 [17]: 14 µM
Compound: CO/N=C/C1=CCCN(C)C1 [MILAMELINE]
- Ratio [4]: 1
- ED50 (Rattus norvegicus [8]): 0.15 mg/kg
- ED Arec (Rattus norvegicus [9]): 0.15 mg/kg

- Ratio [1]: 70
- IC50 [2]: 2.9 µM
- IC50 [5]: 0.041 µM
Compound: CO/N=C(\F)C1=CCCNC1

- Ratio [1]: 9
- IC50 [21]: 9.4 µM
- IC50 [22]: 1 µM
Compound: CCN1CCC=C(/C(C#N)=N/OC)C1

- logP [6]: 1.41
- IC50 [25]: 0.028 µM
- pKa [7]: 8.6
- Ratio [1]: 54
- IC50 [26]: 1.5 µM
Compound: CO/N=C(\C#N)C1=CCCNC1
- Ratio [4]: >10
- ED50 (Rattus norvegicus [8]): > 0.32 mg/kg
- ED Arec (Rattus norvegicus [9]): 0.032 mg/kg

- IC50 [27]: 13 µM
- Ratio [1]: 5
- IC50 [28]: 2.8 µM
Compound: CON=C(C1=CCCN(C)C1)C(F)(F)F

- IC50 [29]: 1.1 µM
- Ratio [1]: 14
- IC50 [30]: 15 µM
Compound: CO/N=C(/C1=CCCN(C)C1)C(F)F
